Assay results from the CheMixHub drug solubility set.

Assay: xn = mol fraction of the nth substance listed, in the solute-free solvent

Nc1cccc2c1CN(C1CCC(=O)NC1=O)C2=O (stereo unspecified) + CCOC(C)=O + CC(C)O
solubility (g/100 g solution)
Conditions | 273.15 K | 278.15 K | 283.15 K | 288.15 K | 293.15 K | 298.15 K | 303.15 K | 308.15 K | 313.15 K | 318.15 K
x2 = 0.1457 | 0.111 | 0.13 | 0.152 | 0.176 | 0.202 | 0.232 | 0.267 | 0.306 | 0.354 | 0.41
x2 = 0.3126 | 0.141 | 0.157 | 0.176 | 0.198 | 0.226 | 0.259 | 0.294 | 0.337 | 0.385 | 0.438
x2 = 0.5057 | 0.179 | 0.201 | 0.223 | 0.247 | 0.274 | 0.301 | 0.334 | 0.37 | 0.41 | 0.454
x2 = 0.7318 | 0.135 | 0.154 | 0.176 | 0.198 | 0.222 | 0.248 | 0.278 | 0.31 | 0.343 | 0.382

CC(C)C(=O)Nc1ccc([N+](=O)[O-])c(C(F)(F)F)c1 + C1COCCO1 + O
solubility (g/100 g solution)
Conditions | 283.15 K | 288.15 K | 293.15 K | 298.15 K | 303.15 K | 308.15 K | 313.15 K | 318.15 K | 323.15 K
x2 = 0.02222 | 0.00748 | 0.00971 | 0.0126 | 0.0163 | 0.0208 | 0.0262 | 0.033 | 0.0406 | 0.0498
x2 = 0.04865 | 0.0654 | 0.0845 | 0.108 | 0.135 | 0.17 | 0.212 | 0.26 | 0.316 | 0.382
x2 = 0.0806 | 0.391 | 0.472 | 0.574 | 0.691 | 0.832 | 0.993 | 1.17 | 1.38 | 1.63
x2 = 0.12 | 1.34 | 1.61 | 1.89 | 2.2 | 2.56 | 2.98 | 3.46 | 3.97 | 4.55
x2 = 0.1698 | 3.72 | 4.33 | 5.02 | 5.81 | 6.62 | 7.58 | 8.62 | 9.74 | 11
x2 = 0.2348 | 7.42 | 8.68 | 9.98 | 11.4 | 13 | 14.8 | 16.6 | 18.7 | 20.9
x2 = 0.3231 | 12.2 | 14.1 | 16.3 | 18.5 | 20.8 | 23.4 | 26.1 | 28.9 | 31.9
x2 = 0.45 | 18.1 | 20.6 | 23.5 | 26.6 | 29.8 | 33.3 | 36.7 | 40.4 | 44.1
x2 = 0.648 | 24.9 | 28 | 31.2 | 34.6 | 38.2 | 41.8 | 45.6 | 49.4 | 53.2

CC(C)C(=O)Nc1ccc([N+](=O)[O-])c(C(F)(F)F)c1 + CC(C)=O + CC(C)O
solubility (g/100 g solution)
Conditions | 278.15 K | 283.15 K | 288.15 K | 293.15 K | 298.15 K | 303.15 K | 308.15 K | 313.15 K | 318.15 K | 323.15 K
x2 = 0.1 | 25.4 | 27.7 | 30.1 | 33.4 | 37.2 | 41 | 44.5 | 48.4 | 53.4 | 59
x2 = 0.2 | 31.8 | 34.1 | 37 | 40.1 | 44.1 | 48 | 52 | 55.4 | 58.7 | 61.9
x2 = 0.3 | 35.7 | 39 | 42 | 45.1 | 48.5 | 52.2 | 55.4 | 58.4 | 61.4 | 64.6
x2 = 0.4 | 38.8 | 42.4 | 45.5 | 48.8 | 52.2 | 55.7 | 59.1 | 62.2 | 65 | 68
x2 = 0.5 | 42.2 | 45.7 | 48.9 | 52.2 | 55.5 | 58.8 | 61.7 | 65 | 68.2 | 71.2
x2 = 0.6 | 44.1 | 47.5 | 51.6 | 54.6 | 57.9 | 61.1 | 63.8 | 67.1 | 70.5 | 73.9
x2 = 0.7 | 47.6 | 50.5 | 54.4 | 57.4 | 60.6 | 64 | 66.9 | 70.1 | 73.3 | 76.3
x2 = 0.8 | 49.3 | 52.8 | 56.5 | 59.7 | 62.9 | 66.1 | 68.9 | 72 | 75.2 | 78.1
x2 = 0.9 | 51 | 54.5 | 58 | 61.3 | 64.7 | 67.9 | 71.1 | 74 | 76.8 | 79.6
